Data as given in ChEMBL document CHEMBL3046477, “Carbamate derivatives of felbamate as potential anticonvulsant agents” (Med Chem Res, 2010).
Calls of active or inactive are those of the source. The calls are words filed in the database; no cut-off is given here.

Key:
Mus musculus [1] = assay: Anticonvulsant activity in Mus musculus (mouse) assessed as protection against subcutaneous pentylenetetrazole-induced seizure up to 300 mg/kg, ip; type: functional, organism-based; set-up: dose 300 mg/kg
Mus musculus [2] = assay: Anticonvulsant activity in Mus musculus (mouse) assessed as protection against maximal electroshock-induced seizure at 300 mg/kg, ip; type: functional, organism-based; set-up: dose 300 mg/kg
Mus musculus [3] = assay: Anticonvulsant activity in ip dosed Mus musculus Swiss Webster (mouse) assessed as protection against subcutaneous pentylenetetrazole-induced seizure at 0.5 hr; type: functional
Mus musculus [4] = assay: Anticonvulsant activity in ip dosed Mus musculus Swiss Webster (mouse) assessed as protection against maximal electroshock-induced seizure at 0.5 hr; type: functional
Mus musculus [5] = assay: Anticonvulsant activity in Mus musculus Swiss Webster (mouse) assessed as protection against subcutaneous pentylenetetrazole-induced seizure up to 300 mg/kg, ip at 0.5 hr; type: functional, organism-based; set-up: dose 300 mg/kg
Rattus norvegicus [6] = assay: Anticonvulsant activity in ip dosed Rattus norvegicus (rat) assessed as protection against maximal electroshock-induced seizure; type: functional
Rattus norvegicus [7] = assay: Protective index, ratio of TD50 for po dosed Rattus norvegicus (rat) to ED50 for po dosed rat by subcutaneous pentylenetetrazole seizure test; type: functional
Rattus norvegicus [8] = assay: Protective index, ratio of TD50 for po dosed Rattus norvegicus (rat) to ED50 for po dosed rat by maximal electroshock seizures test; type: functional
[9] = Neurotoxicity in po dosed Rattus norvegicus (rat) assessed as minimal motor impairment by rotorod test; type: toxicity, organism-based; settings: in vivo
Rattus norvegicus [10] = assay: Anticonvulsant activity in po dosed Rattus norvegicus (rat) assessed as protection against subcutaneous pentylenetetrazole-induced seizure; type: functional
Rattus norvegicus [11] = assay: Anticonvulsant activity in po dosed Rattus norvegicus (rat) assessed as protection against maximal electroshock-induced seizure; type: functional
Rattus norvegicus [12] = assay: Anticonvulsant activity in Rattus norvegicus (rat) assessed as protection against maximal electroshock-induced seizure at 30 mg/kg, po; type: functional, organism-based; set-up: dose 30 mg/kg
[13] = Neurotoxicity in ip dosed Mus musculus (mouse) assessed as minimal motor impairment by rotorod test; type: toxicity, organism-based; settings: in vivo
Mus musculus [14] = assay: Anticonvulsant activity in ip dosed Mus musculus (mouse) assessed as protection against subcutaneous pentylenetetrazole-induced seizure; type: functional
Mus musculus [15] = assay: Anticonvulsant activity in ip dosed Mus musculus (mouse) assessed as protection against maximal electroshock-induced seizures; type: functional
Mus musculus [16] = assay: Anticonvulsant activity in Mus musculus (mouse) assessed as protection against subcutaneous pentylenetetrazole-induced seizure at 300 mg/kg, ip; type: functional, organism-based; set-up: dose 300 mg/kg
Mus musculus [17] = assay: Anticonvulsant activity in Mus musculus (mouse) assessed as protection against maximal electroshock-induced seizure at 100 mg/kg, ip; type: functional, organism-based; set-up: dose 100 mg/kg
Rattus norvegicus [18] = assay: Neurotoxicity in Rattus norvegicus (rat) at 300 mg/kg, ip; type: toxicity, organism-based; set-up: dose 300 mg/kg, route intraperitoneal; settings: in vivo
Rattus norvegicus [19] = assay: Anticonvulsant activity Rattus norvegicus (rat) assessed as reduction of hippocampus kindling at 100 mg/kg, ip; type: functional, organism-based; set-up: dose 100 mg/kg
[20] = Neurotoxicity in ip dosed Rattus norvegicus (rat) assessed as minimal motor impairment at 0.5 hr by rotorod test; type: toxicity, organism-based; settings: in vivo
Rattus norvegicus [21] = assay: Neurotoxicity in Rattus norvegicus (rat) assessed as minimal motor impairment at 20 mg/kg, ip at 60 min by rotorod test; type: toxicity, organism-based; set-up: dose 20 mg/kg, route intraperitoneal; settings: in vivo, 1 h
Rattus norvegicus [22] = assay: Neurotoxicity in Rattus norvegicus (rat) assessed as minimal motor impairment at 20 mg/kg, ip at 30 min by rotorod test; type: toxicity, organism-based; set-up: dose 20 mg/kg, route intraperitoneal; settings: in vivo, 0.5 h
Rattus norvegicus [23] = assay: Neurotoxicity in Rattus norvegicus (rat) assessed as minimal motor impairment at 20 mg/kg, ip at 5 min by rotorod test; type: toxicity, organism-based; set-up: dose 20 mg/kg, route intraperitoneal; settings: in vivo
Rattus norvegicus [24] = assay: Anticonvulsant activity in Rattus norvegicus (rat) assessed as protection against maximal electroshock-induced seizure at 20 mg/kg, ip at 30 min; type: functional, organism-based; set-up: dose 20 mg/kg
Rattus norvegicus [25] = assay: Anticonvulsant activity in Rattus norvegicus (rat) assessed as protection against maximal electroshock-induced seizure at 20 mg/kg, ip at 15 min; type: functional, organism-based; set-up: dose 20 mg/kg
Mus musculus [26] = assay: Anticonvulsant activity in Mus musculus (mouse) assessed as protection against maximal electroshock-induced seizure up to 300 mg/kg, ip; type: functional, organism-based; set-up: dose 300 mg/kg
Rattus norvegicus [27] = assay: Neurotoxicity in Rattus norvegicus (rat) assessed as minimal motor impairment at 20 mg/kg, ip at 15 min by rotorod test; type: toxicity, organism-based; set-up: dose 20 mg/kg, route intraperitoneal; settings: in vivo, 0.25 h
Rattus norvegicus [28] = assay: Neurotoxicity in Rattus norvegicus (rat) assessed as minimal motor impairment at 20 mg/kg, ip at 10 min by rotorod test; type: toxicity, organism-based; set-up: dose 20 mg/kg, route intraperitoneal; settings: in vivo
Mus musculus [29] = assay: Anticonvulsant activity in po dosed Mus musculus Swiss Webster (mouse) assessed as protection against maximal electroshock-induced seizure at 0.5 hr; type: functional
Rattus norvegicus [30] = assay: Anticonvulsant activity in Rattus norvegicus (rat) assessed as protection against maximal electroshock-induced seizure at 20 mg/kg, ip at 10 min; type: functional, organism-based; set-up: dose 20 mg/kg
Rattus norvegicus [31] = assay: Anticonvulsant activity in Rattus norvegicus (rat) assessed as protection against maximal electroshock-induced seizure at 20 mg/kg, ip at 60 min; type: functional, organism-based; set-up: dose 20 mg/kg
Mus musculus [32] = assay: Anticonvulsant activity in Mus musculus Swiss Webster (mouse) assessed as protection against maximal electroshock-induced seizure at 300 mg/kg, ip at 0.5 hr; type: functional, organism-based; set-up: dose 300 mg/kg
Mus musculus [33] = assay: Anticonvulsant activity in po dosed Mus musculus (mouse) assessed as protection against maximal electroshock-induced seizure; type: functional

In the case of `O=C(NCCO)OCc1ccccc1`, the Activity (Mus musculus [1]) is reported as “inactive”, the Activity (Mus musculus [2]) is reported as “Active” and the ED50 (Mus musculus [3]) is reported as 170 mg/kg. It also gave an ED50 (Mus musculus [4]) of 25.2 mg/kg.
For `CNC(=O)OCc1ccccc1` [BENZYL N-METHYLCARBAMATE], the Activity (Mus musculus [5]) was “inactive” and the ED50 (Mus musculus [4]) was 40.5 mg/kg.
With `CCC(COC(N)=O)c1ccccc1` (racemic) the ED50 (Rattus norvegicus [6]) was 16.1 mg/kg, the “Ratio TD50/ED50” value (Rattus norvegicus [7]) was 8 and the “Ratio TD50/ED50” value (Rattus norvegicus [8]) was >15.3. For the same compound, the TD50 [9] was > 320 mg/kg, the ED50 (Rattus norvegicus [10]) was > 40 mg/kg and the ED50 (Rattus norvegicus [11]) was 21 mg/kg. The Activity (Rattus norvegicus [12]) was “Active”, the TD50 [13] was 114 mg/kg and the ED50 (Mus musculus [14]) was 87.6 mg/kg. The ED50 (Mus musculus [15]) was 72.7 mg/kg, the Activity (Mus musculus [16]) was “Active” and the Activity (Mus musculus [17]) was “Active”. The ED50 (Mus musculus [3]) was 124 mg/kg, the ED50 (Mus musculus [4]) was 71.7 mg/kg and the Activity (Rattus norvegicus [18]) was “Toxic”. For the same compound, the Activity (Rattus norvegicus [19]) was “inactive” and the TD50 at 0.5 h [20] was 50.5 mg/kg.
With `NC(=O)OCc1ccccc1` [BENZYL CARBAMATE] the ED50 (Mus musculus [3]) was 80.2 mg/kg and the ED50 (Mus musculus [4]) was 30.6 mg/kg.
For `C[C@@H](CO)NC(=O)OCc1ccccc1`, the “Ratio TD50/ED50” value (Rattus norvegicus [7]) was 2.88, the “Ratio TD50/ED50” value (Rattus norvegicus [8]) was >5.3 and the Activity (Rattus norvegicus [21]) was “Non-toxic”. For the same compound, the Activity (Rattus norvegicus [22]) was “Non-toxic”, the Activity (Rattus norvegicus [23]) was “Non-toxic” and the Activity (Rattus norvegicus [24]) was “inactive”. For the same compound, the Activity (Rattus norvegicus [25]) was “inactive”, the Activity (Mus musculus [26]) was “inactive” and the TD50 [9] was > 360 mg/kg. The ED50 (Rattus norvegicus [10]) was > 125 mg/kg, the ED50 (Rattus norvegicus [11]) was 67.6 mg/kg and the Activity (Rattus norvegicus [12]) was “Active”. For the same compound, the Activity (Mus musculus [1]) was “inactive”, the ED50 (Mus musculus [3]) was 258 mg/kg and the ED50 (Mus musculus [4]) was 54.7 mg/kg. The Activity (Rattus norvegicus [27]) was “Non-toxic” and the Activity (Rattus norvegicus [28]) was “Non-toxic”.
In the case of `NC(=O)OCCc1ccccc1` [PHENYLETHYL CARBAMATE], the Activity (Mus musculus [5]) is reported as “inactive” and the ED50 (Mus musculus [4]) is reported as 17.7 mg/kg.
In the case of `O=C(N[C@@H](CO)Cc1ccccc1)OCc1ccccc1`, the Activity (Mus musculus [1]) is reported as “inactive”, the Activity (Mus musculus [2]) is reported as “Active” and the Anticonvulsant activity (Mus musculus [3]) is reported as “Active”. The ED50 (Mus musculus [4]) was 14.9 mg/kg.
In the case of `O=C(N[C@H](CO)Cc1ccccc1)OCc1ccccc1`, the Activity (Mus musculus [1]) is reported as “inactive”, the Activity (Mus musculus [2]) is reported as “Active” and the Activity (Mus musculus [3]) is reported as “Active”. The ED50 (Mus musculus [4]) was 33.5 mg/kg.
With `NC(=O)OCC(COC(N)=O)c1ccccc1` [FELBAMATE] the ED50 (Mus musculus [29]) was 52 mg/kg, the TD50 [9] was > 500 mg/kg and the ED50 (Rattus norvegicus [10]) was > 250 mg/kg. For the same compound, the ED50 (Rattus norvegicus [11]) was 25.3 mg/kg, the ED50 (Mus musculus [14]) was 126 mg/kg and the ED50 (Mus musculus [15]) was 35.5 mg/kg. The ED50 (Mus musculus [3]) was 548 mg/kg, the ED50 (Mus musculus [4]) was 35 mg/kg and the Activity (Rattus norvegicus [19]) was “inactive”.
In the case of `C[C@H](CO)NC(=O)OCc1ccccc1`, the “Ratio TD50/ED50” value (Rattus norvegicus [7]) is reported as 2, the “Ratio TD50/ED50” value (Rattus norvegicus [8]) is reported as >21 and the Activity (Rattus norvegicus [21]) is reported as “Non-toxic”. The Activity (Rattus norvegicus [22]) was “Non-toxic”, the Activity (Rattus norvegicus [23]) was “Non-toxic” and the Activity (Rattus norvegicus [30]) was “inactive”. For the same compound, the Activity (Mus musculus [26]) was “inactive”, the TD50 [9] was > 500 mg/kg and the ED50 (Rattus norvegicus [10]) was > 250 mg/kg. The ED50 (Rattus norvegicus [11]) was 23.9 mg/kg, the Activity (Mus musculus [1]) was “inactive” and the ED50 (Mus musculus [3]) was 226 mg/kg. For the same compound, the ED50 (Mus musculus [4]) was 60.1 mg/kg, the Activity (Rattus norvegicus [31]) was “inactive” and the Activity (Rattus norvegicus [27]) was “Non-toxic”. The Activity (Rattus norvegicus [28]) was “Non-toxic”, the Activity (Rattus norvegicus [18]) was “Toxic” and the Activity (Rattus norvegicus [19]) was “inactive”.
With `CCCC(CO)NC(=O)OCc1ccccc1` (racemic) the Activity (Mus musculus [2]) was “Active”, the Activity (Mus musculus [16]) was “Active” and the ED50 (Mus musculus [3]) was 281 mg/kg. For the same compound, the ED50 (Mus musculus [4]) was 51.8 mg/kg.
For `NC(=O)Oc1ccccc1` [CARBAMIC ACID PHENYL ESTER], the Activity (Mus musculus [32]) was “Active” and the ED50 (Mus musculus [3]) was 101 mg/kg.
With `NC(=O)OCC(CO)c1ccccc1` (stereo unspecified) the ED50 (Mus musculus [33]) was 154 mg/kg.
For `CC[C@H](CO)NC(=O)OCc1ccccc1`, the Activity (Mus musculus [1]) was “inactive”, the Activity (Mus musculus [2]) was “Active” and the ED50 (Mus musculus [3]) was 144 mg/kg. It also gave an ED50 (Mus musculus [4]) of 80.5 mg/kg.
For `O=C(NCc1ccccc1)OCc1ccccc1` [BENZYL BENZYLCARBAMATE], the Activity (Mus musculus [1]) was “inactive”, the Activity (Mus musculus [2]) was “Active” and the ED50 (Mus musculus [3]) was 115 mg/kg. The ED50 (Mus musculus [4]) was 170 mg/kg.
In the case of `CC[C@@H](CO)NC(=O)OCc1ccccc1`, the Activity (Mus musculus [1]) is reported as “inactive”, the Activity (Mus musculus [2]) is reported as “Active” and the ED50 (Mus musculus [3]) is reported as 111 mg/kg. The ED50 (Mus musculus [4]) was 123 mg/kg.
Work on `CCCC(C)(COC(N)=O)COC(N)=O` [MEPROBAMATE] yielded an ED50 (Mus musculus [29]) of 165 mg/kg, an ED50 (Mus musculus [3]) of 66 mg/kg and an ED50 (Mus musculus [4]) of 127 mg/kg.
